Measurements published in patent publication US10894772B2, “Flavor modulator having pyridine derivative or salt thereof as active ingredient” (T. HASEGAWA CO., LTD., priority 2015, dated 2021).

system: panelists; assay: Flavor evaluation of ethanol solution (bottle mouth and flavor paper); type: in vivo; details: 1% ethanol solution, typical evaluation, 5 panelists
Method: A […] ethanol solution of the invention products 1 to 6 prepared in Examples 1 to 6 was prepared as an evaluation solution. The evaluation solution was prepared in a sample bottle. Regarding the flavor of the sample smelling from the bottle mouth and the flavor of a flavor paper prepared by infiltrating the evaluation solution into a paper, well-trained 5 panelists tested the solution for flavor evaluation.
A 0.1% ethanol solution of the invention product 101 (2-(3-benzyloxypropyl)pyridine) prepared in Example 101 was prepared as an evaluation solution. The evaluation solution was prepared in a sample bottle. Regarding the flavor of the sample smelling from the bottle mouth and the flavor of a flavor paper prepared by infiltrating the evaluation solution into a paper, well-trained 5 panelists tested the solution for flavor evaluation. A typical evaluation of the product is as follows.

Row | SMILES | Flavor Evaluation
1 | c1ccc(COCCCCc2ccccn2)cc1 [invention product 1, 2-(4-benzyloxybutyl)pyridine] | Earthy
2 | c1ccc(CCOCCc2ccccn2)cc1 [invention product 2, 2-(2-phenylethoxyethyl)pyridine] | Earthy, hyacinthine
3 | COc1ccc(COCCCc2ccccn2)cc1 [invention product 3, 2-[3-(p-methoxybenzyloxy)propyl]pyridine] | Bitter almond

system: panelists; assay: Confirmation of umami in water (point score); type: in vivo; details: 0.1 ppm in water; average point of 10 panelists; 0 no difference from control (water), 1 somewhat stronger, 2 stronger, 3 considerably stronger, 4 poor taste balance
Method: As a comparative product, a solution was prepared by dissolving the comparative product 1 (2-(2-benzyloxyethyl)pyridine) to have the same concentration. Water with no addition was prepared as a control product. Well-trained 10 panelists tasted the solutions prepared by dissolving any the invention products 1 to 6 and the comparative product 1 for organoleptic evaluation of umami.
Umami evaluation was based on the control product of water.

Row | SMILES | umami (average point)
4 | c1ccc(COCCCCc2ccccn2)cc1 [invention product 1, 2-(4-benzyloxybutyl)pyridine] | 1.6
5 | c1ccc(CCOCCc2ccccn2)cc1 [invention product 2, 2-(2-phenylethoxyethyl)pyridine] | 1.5
6 | COc1ccc(COCCCc2ccccn2)cc1 [invention product 3, 2-[3-(p-methoxybenzyloxy)propyl]pyridine] | 1.4

same assay, conditions: 1 ppm in water; average point of 10 panelists; 0 no difference from control (water), 1 somewhat stronger, 2 stronger, 3 considerably stronger, 4 poor taste balance

Row | SMILES | umami (average point)
7 | c1ccc(COCCCCc2ccccn2)cc1 [invention product 1, 2-(4-benzyloxybutyl)pyridine] | 2.3
8 | c1ccc(CCOCCc2ccccn2)cc1 [invention product 2, 2-(2-phenylethoxyethyl)pyridine] | 2.0
9 | COc1ccc(COCCCc2ccccn2)cc1 [invention product 3, 2-[3-(p-methoxybenzyloxy)propyl]pyridine] | 2.1

same assay, conditions: 2 ppb in water; average point of 10 panelists; 0 no difference from control (water), 1 somewhat stronger, 2 stronger, 3 considerably stronger, 4 poor taste balance

Row | SMILES | umami (average point)
10 | c1ccc(COCCCCc2ccccn2)cc1 [invention product 1, 2-(4-benzyloxybutyl)pyridine] | 0.0
11 | c1ccc(CCOCCc2ccccn2)cc1 [invention product 2, 2-(2-phenylethoxyethyl)pyridine] | 0.0
12 | COc1ccc(COCCCc2ccccn2)cc1 [invention product 3, 2-[3-(p-methoxybenzyloxy)propyl]pyridine] | 0.0

same assay, conditions: 10 ppb in water; average point of 10 panelists; 0 no difference from control (water), 1 somewhat stronger, 2 stronger, 3 considerably stronger, 4 poor taste balance

Row | SMILES | umami (average point)
13 | c1ccc(COCCCCc2ccccn2)cc1 [invention product 1, 2-(4-benzyloxybutyl)pyridine] | 0.8
14 | c1ccc(CCOCCc2ccccn2)cc1 [invention product 2, 2-(2-phenylethoxyethyl)pyridine] | 0.7
15 | COc1ccc(COCCCc2ccccn2)cc1 [invention product 3, 2-[3-(p-methoxybenzyloxy)propyl]pyridine] | 0.8

same assay, conditions: 20 ppm in water; average point of 10 panelists; 0 no difference from control (water), 1 somewhat stronger, 2 stronger, 3 considerably stronger, 4 poor taste balance

Row | SMILES | umami (average point)
16 | c1ccc(COCCCCc2ccccn2)cc1 [invention product 1, 2-(4-benzyloxybutyl)pyridine] | 2.9
17 | c1ccc(CCOCCc2ccccn2)cc1 [invention product 2, 2-(2-phenylethoxyethyl)pyridine] | 2.8
18 | COc1ccc(COCCCc2ccccn2)cc1 [invention product 3, 2-[3-(p-methoxybenzyloxy)propyl]pyridine] | 2.8

same assay, conditions: 200 ppm in water; average point of 10 panelists; 0 no difference from control (water), 1 somewhat stronger, 2 stronger, 3 considerably stronger, 4 poor taste balance

Row | SMILES | umami (average point)
19 | c1ccc(COCCCCc2ccccn2)cc1 [invention product 1, 2-(4-benzyloxybutyl)pyridine] | 3.4
20 | c1ccc(CCOCCc2ccccn2)cc1 [invention product 2, 2-(2-phenylethoxyethyl)pyridine] | 3.2
21 | COc1ccc(COCCCc2ccccn2)cc1 [invention product 3, 2-[3-(p-methoxybenzyloxy)propyl]pyridine] | 3.0

same assay, conditions: 500 ppm in water; average point of 10 panelists; 0 no difference from control (water), 1 somewhat stronger, 2 stronger, 3 considerably stronger, 4 poor taste balance

Row | SMILES | umami (average point)
22 | c1ccc(COCCCCc2ccccn2)cc1 [invention product 1, 2-(4-benzyloxybutyl)pyridine] | 3.8
23 | c1ccc(CCOCCc2ccccn2)cc1 [invention product 2, 2-(2-phenylethoxyethyl)pyridine] | 3.8
24 | COc1ccc(COCCCc2ccccn2)cc1 [invention product 3, 2-[3-(p-methoxybenzyloxy)propyl]pyridine] | 3.6

same assay, conditions: 2000 ppm in water; average point of 10 panelists; 0 no difference from control (water), 1 somewhat stronger, 2 stronger, 3 considerably stronger, 4 poor taste balance

Row | SMILES | umami (average point)
25 | c1ccc(COCCCCc2ccccn2)cc1 [invention product 1, 2-(4-benzyloxybutyl)pyridine] | 4.0
26 | c1ccc(CCOCCc2ccccn2)cc1 [invention product 2, 2-(2-phenylethoxyethyl)pyridine] | 4.0
27 | COc1ccc(COCCCc2ccccn2)cc1 [invention product 3, 2-[3-(p-methoxybenzyloxy)propyl]pyridine] | 3.9

system: panelists; assay: Confirmation of umami imparting and saltiness enhancing effect in 0.3 mass % sodium chloride (point score); type: in vivo; details: 0.05 ppb in aqueous 0.3 mass % sodium chloride solution; average point of 10 panelists vs control; 0 no change, 1 slightly higher, 2 higher, 3 considerably higher, 4 extremely higher umami and saltiness, 5 bitter as lacking balance
Method: An aqueous 0.3 mass % sodium chloride solution (control), and solutions of the invention products 1 to 6 each dissolved in a 0.3 mass % sodium chloride solution to have the concentration shown in Table 5 were prepared. As a comparative product, a solution was prepared by dissolving the comparative product 1 in 0.3 mass % sodium chloride. Well-trained 10 panelists tasted the solutions for organoleptic evaluation of umami impartment and saltiness enhancement.
Umami and saltiness scores are as follows, based on the aqueous 0.3 mass % sodium chloride solution as a control. Each sample was given any of a point 0, no change from control; 1, slightly higher umami and saltiness than control; 2, higher umami and saltiness than control; 3, considerably higher umami and saltiness than control; 4, extremely higher umami and saltiness than control; and 5, bitter as lacking balance of umami and saltiness.

Row | SMILES | umami and saltiness (average point)
28 | c1ccc(COCCCCc2ccccn2)cc1 [invention product 1, 2-(4-benzyloxybutyl)pyridine] | 0.0
29 | c1ccc(CCOCCc2ccccn2)cc1 [invention product 2, 2-(2-phenylethoxyethyl)pyridine] | 0.0
30 | COc1ccc(COCCCc2ccccn2)cc1 [invention product 3, 2-[3-(p-methoxybenzyloxy)propyl]pyridine] | 0.0

same assay, conditions: 0.1 ppb in aqueous 0.3 mass % sodium chloride solution; average point of 10 panelists vs control; 0 no change, 1 slightly higher, 2 higher, 3 considerably higher, 4 extremely higher umami and saltiness, 5 bitter as lacking balance

Row | SMILES | umami and saltiness (average point)
31 | c1ccc(COCCCCc2ccccn2)cc1 [invention product 1, 2-(4-benzyloxybutyl)pyridine] | 0.8
32 | c1ccc(CCOCCc2ccccn2)cc1 [invention product 2, 2-(2-phenylethoxyethyl)pyridine] | 0.7
33 | COc1ccc(COCCCc2ccccn2)cc1 [invention product 3, 2-[3-(p-methoxybenzyloxy)propyl]pyridine] | 0.8

same assay, conditions: 0.1 ppm in aqueous 0.3 mass % sodium chloride solution; average point of 10 panelists vs control; 0 no change, 1 slightly higher, 2 higher, 3 considerably higher, 4 extremely higher umami and saltiness, 5 bitter as lacking balance

Row | SMILES | umami and saltiness (average point)
34 | c1ccc(COCCCCc2ccccn2)cc1 [invention product 1, 2-(4-benzyloxybutyl)pyridine] | 3.2
35 | c1ccc(CCOCCc2ccccn2)cc1 [invention product 2, 2-(2-phenylethoxyethyl)pyridine] | 3.0
36 | COc1ccc(COCCCc2ccccn2)cc1 [invention product 3, 2-[3-(p-methoxybenzyloxy)propyl]pyridine] | 3.3

same assay, conditions: 0.5 ppm in aqueous 0.3 mass % sodium chloride solution; average point of 10 panelists vs control; 0 no change, 1 slightly higher, 2 higher, 3 considerably higher, 4 extremely higher umami and saltiness, 5 bitter as lacking balance

Row | SMILES | umami and saltiness (average point)
37 | c1ccc(COCCCCc2ccccn2)cc1 [invention product 1, 2-(4-benzyloxybutyl)pyridine] | 3.7
38 | c1ccc(CCOCCc2ccccn2)cc1 [invention product 2, 2-(2-phenylethoxyethyl)pyridine] | 3.9
39 | COc1ccc(COCCCc2ccccn2)cc1 [invention product 3, 2-[3-(p-methoxybenzyloxy)propyl]pyridine] | 3.5

same assay, conditions: 1 ppb in aqueous 0.3 mass % sodium chloride solution; average point of 10 panelists vs control; 0 no change, 1 slightly higher, 2 higher, 3 considerably higher, 4 extremely higher umami and saltiness, 5 bitter as lacking balance

Row | SMILES | umami and saltiness (average point)
40 | c1ccc(COCCCCc2ccccn2)cc1 [invention product 1, 2-(4-benzyloxybutyl)pyridine] | 1.4
41 | c1ccc(CCOCCc2ccccn2)cc1 [invention product 2, 2-(2-phenylethoxyethyl)pyridine] | 1.5
42 | COc1ccc(COCCCc2ccccn2)cc1 [invention product 3, 2-[3-(p-methoxybenzyloxy)propyl]pyridine] | 1.6

same assay, conditions: 2 ppm in aqueous 0.3 mass % sodium chloride solution; average point of 10 panelists vs control; 0 no change, 1 slightly higher, 2 higher, 3 considerably higher, 4 extremely higher umami and saltiness, 5 bitter as lacking balance

Row | SMILES | umami and saltiness (average point)
43 | c1ccc(COCCCCc2ccccn2)cc1 [invention product 1, 2-(4-benzyloxybutyl)pyridine] | 4.3
44 | c1ccc(CCOCCc2ccccn2)cc1 [invention product 2, 2-(2-phenylethoxyethyl)pyridine] | 4.4
45 | COc1ccc(COCCCc2ccccn2)cc1 [invention product 3, 2-[3-(p-methoxybenzyloxy)propyl]pyridine] | 4.2

same assay, conditions: 10 ppb in aqueous 0.3 mass % sodium chloride solution; average point of 10 panelists vs control; 0 no change, 1 slightly higher, 2 higher, 3 considerably higher, 4 extremely higher umami and saltiness, 5 bitter as lacking balance

Row | SMILES | umami and saltiness (average point)
46 | c1ccc(COCCCCc2ccccn2)cc1 [invention product 1, 2-(4-benzyloxybutyl)pyridine] | 2.3
47 | c1ccc(CCOCCc2ccccn2)cc1 [invention product 2, 2-(2-phenylethoxyethyl)pyridine] | 2.4
48 | COc1ccc(COCCCc2ccccn2)cc1 [invention product 3, 2-[3-(p-methoxybenzyloxy)propyl]pyridine] | 2.6

same assay, conditions: 10 ppm in aqueous 0.3 mass % sodium chloride solution; average point of 10 panelists vs control; 0 no change, 1 slightly higher, 2 higher, 3 considerably higher, 4 extremely higher umami and saltiness, 5 bitter as lacking balance

Row | SMILES | umami and saltiness (average point)
49 | c1ccc(COCCCCc2ccccn2)cc1 [invention product 1, 2-(4-benzyloxybutyl)pyridine] | 4.7
50 | c1ccc(CCOCCc2ccccn2)cc1 [invention product 2, 2-(2-phenylethoxyethyl)pyridine] | 4.6
51 | COc1ccc(COCCCc2ccccn2)cc1 [invention product 3, 2-[3-(p-methoxybenzyloxy)propyl]pyridine] | 4.8

same assay, conditions: 50 ppm in aqueous 0.3 mass % sodium chloride solution; average point of 10 panelists vs control; 0 no change, 1 slightly higher, 2 higher, 3 considerably higher, 4 extremely higher umami and saltiness, 5 bitter as lacking balance

Row | SMILES | umami and saltiness (average point)
52 | c1ccc(COCCCCc2ccccn2)cc1 [invention product 1, 2-(4-benzyloxybutyl)pyridine] | 4.9
53 | c1ccc(CCOCCc2ccccn2)cc1 [invention product 2, 2-(2-phenylethoxyethyl)pyridine] | 5.0
54 | COc1ccc(COCCCc2ccccn2)cc1 [invention product 3, 2-[3-(p-methoxybenzyloxy)propyl]pyridine] | 4.9
